Laboratory results reported in US20110107445A1, “Efficient Insertion of DNA Into Embryonic Stem Cells” (ITI Scotland Limited, priority 2008, published 2011).

Legend:
CYP3A4 [1] = assay: In vitro DBF oxidation by mouse liver and intestinal microsomes; format: in vitro ADME
Method: The total reaction volume was 1 mL. Fluorescein fluorescence was recorded using an F-4500 fluorescence spectrophotometer (Hitachi), excitation 485 nm and emission 538 nm. Fluorescein standard (10 μL, 25 μM) was injected into the reaction cuvette approximately 150 sec after the addition of NADPH. Slopes of the time course of the product accumulation were calculated using FL-Solution 2.0 (Hitachi).

CYP3A7 mRNA = conditions: mouse, in vivo
Method: 3 homozygous male mice per strain were used throughout. Two mice were administered with 5-Pregnen-3β-ol-20-one-16α-carbonitrile (PCN) (100 mg/kg/2 daily doses/IP) and one mouse was given the vehicle (corn oil). […] Wild type (WT) and Cyp3a KO animals were included as controls (n=3 for WT, pooled; n=1-2 for Cyp3a KO). Animals were sacrificed 24 hrs post final dose. Liver and duodenal microsomes were analysed for CYP3A4 expression and catalytic activity.
The mice received either corn oil (vehicle) or PCN 100 mg/kg, daily, for 2 days by intraperitoneal (IP) injection according to the experimental design described in Table 3. Dosing solutions were prepared at CXR Biosciences on the day of dosing by adding the vehicle (corn oil) to the requisite quantity of the PCN. The concentration of PCN was the concentration of supplied chemical, without any correction for purity. Excess dosing solution was stored at approximately 2-8° C. for possible future analysis. The volume of dosing solution was 10 mL/kg bodyweight. […]
For each target gene a reaction with the lowest dCt value was identified and that dCt value was subtracted from all other dCt, giving so-called ddCt (ddCt of the sample with the lowest dCt (endogenous reference) equals 0). Finally, the normalised relative amount of target gene (RQ) was calculated using the following formula: RQ=(2̂(−ddCt))*100 as shown in Table 9.

[2] = Body and liver weights of PCN treated mice; format: in vivo, mouse; conditions: for Liver per body weight, percentage of C57BL/6J from the same treatment group / Liver per body weight, percentage of control group of the same strain / Body weight / Liver per body weight / Liver weight: PCN 100 mg/kg daily for 2 days IP; for Body weight / Liver per body weight / Liver weight: mean ± SD
Method: (§1) The mice received either corn oil (vehicle) or PCN 100 mg/kg, daily, for 2 days by intraperitoneal (IP) injection according to the experimental design described in Table 3. Dosing solutions were prepared at CXR Biosciences on the day of dosing by adding the vehicle (corn oil) to the requisite quantity of the PCN. The concentration of PCN was the concentration of supplied chemical, without any correction for purity. Excess dosing solution was stored at approximately 2-8° C. for possible future analysis. The volume of dosing solution was 10 mL/kg bodyweight. Approximately 24 h after the second dose, the mice were euthanized using a rising concentration of CO2. Blood was collected at termination by cardiac puncture into lithium/heparin coacted tubes for plasma preparation.
The body weight of each mouse was recorded at the start of the study and immediately prior to termination. Bodyweights were recorded electronically or manually and records of these weights were stored in the study file.
In order to weigh the liver, the gall bladder was removed, and then the liver was removed and weighed. Two samples of liver (approximately 5 mm^3) were immediately flash frozen in a cryovial in liquid nitrogen then stored at approximately −70° C. for RNA analysis. The remaining liver was weighed and immediately used for subcellular fractionation to homogenates and microsomes.

[3] = Plasma clinical chemistry of PCN treated mice; format: in vivo, mouse; conditions: PCN treated hCYP3A4_Cyp3a KO mice compared to treated C57BL/6J mice
Method: as §1
Plasma samples were produced by removing red blood cells by centrifugation (2,000-3,000 rpm for 10 min at 8-10° C.). The supernatant (plasma) was stored on ice prior to clinical chemistry analysis. The pellet was discarded. Plasma samples from all animals were analysed for triglycerides, alanine aminotransferase, alkaline phosphatase, aspartate aminotransferase, albumin, cholesterol, bilirubin (total and direct), high and low density lipoproteins using the COBAS Integra 400+ (Roche), and the results are shown in FIGS. 19-21. […]

CYP3A4 [4] = assay: Western blot of liver and intestinal microsomes for CYP3A4 protein; format: in vivo, mouse
Method: as §1
The duodenum (first 10 cm from the base of the stomach) was removed and flushed with ice cold PBS containing a protease inhibitor cocktail (Roche). The first 2 cm was but and placed into a 2 ml cryvial containing 1 ml of TRIZOL (Sigma), flash frozen immediately, and then stored at approximately −70° C. for Taqman® analysis. The remainder of the duodenum was placed in a 1 ml cryovial and flash frozen immediately, and then stored at approximately −70°.
Liver microsomes were produced by preparing subcellular fractions from fresh livers. The livers were processed as described above to homogenates and microsomes. Aliquots from liver samples were stored at approximately −70° prior to analysis.
Frozen small intestines were homogenised in SET with protease cocktail inhibitor (Roche) and PMSF (mM) using a Polytron homogeniser. The homogenates were subjected to subcellular fractionation as described above. The microsomal fractions were stored at approximately −70° prior to analysis.
Liver microsomes from C57BL/6J, hCYP3A4/3A7_Cyp3a KO, hCYP3A4_Cyp3a KO and Cyp3a KO mice were analysed by Western blotting using an antibody specific to CYP3A4 and the results are shown in FIG. 22. There was a clear protein band for CYP3A4 on the Western blot of liver and intestinal microsomes from vehicle treated hCYP3A4/3A7_Cyp3a KO mice. […]

CYP3A4 [5] = format: in vitro ADME, mouse
Text: FIG. 24. 7-BQ oxidation by liver (A) and intestinal (B) microsomes from C57BL/6J, hCYP3A4/3A7_Cyp3a KO, hCYP3A4_Cyp3a KO and Cyp3a KO mice Data generated according to CXR approved Laboratory Method Sheet Fluor-0005. Apart from bars for untreated transgenic/knock-out mice, which represent a single measurement, data are mean±SD (n=3 for C57BL/6J microsomes; n=2 for microsomes from PCN treated transgenic strains and human liver microsomes (HLM)). Activities of samples from treated hCYP3A4/3A7_Cyp3a KO and hCYP3A4_Cyp3a KO mice were compared to that from Cyp3a KO line with an unpaired t test (two tailed P values). 3 homozygous male mice per strain were used throughout. Two mice were administered with 5-Pregnen-3β-ol-20-one-16α-carbonitrile (PCN) (100 mg/kg/2 daily doses/IP) and one mouse was given the vehicle (corn oil). […] Wild type (WT) and Cyp3a KO animals were included as controls (n=3 for WT, pooled; n=1-2 for Cyp3a KO). Animals were sacrificed 24 hrs post final dose. Liver and duodenal microsomes were analysed for CYP3A4 expression and catalytic activity.

CYP3A4 [6] = biological target: T1, CYP3A4 (Homo sapiens, UniProt P08684); assay: In vitro oxidation of 7-BQ by pooled human liver microsomes; format: in vitro ADME
T1 construct: tissue Gentest 452172; host or cells: pooled (male) human liver microsomes
T1 sequence (P08684 whole entry): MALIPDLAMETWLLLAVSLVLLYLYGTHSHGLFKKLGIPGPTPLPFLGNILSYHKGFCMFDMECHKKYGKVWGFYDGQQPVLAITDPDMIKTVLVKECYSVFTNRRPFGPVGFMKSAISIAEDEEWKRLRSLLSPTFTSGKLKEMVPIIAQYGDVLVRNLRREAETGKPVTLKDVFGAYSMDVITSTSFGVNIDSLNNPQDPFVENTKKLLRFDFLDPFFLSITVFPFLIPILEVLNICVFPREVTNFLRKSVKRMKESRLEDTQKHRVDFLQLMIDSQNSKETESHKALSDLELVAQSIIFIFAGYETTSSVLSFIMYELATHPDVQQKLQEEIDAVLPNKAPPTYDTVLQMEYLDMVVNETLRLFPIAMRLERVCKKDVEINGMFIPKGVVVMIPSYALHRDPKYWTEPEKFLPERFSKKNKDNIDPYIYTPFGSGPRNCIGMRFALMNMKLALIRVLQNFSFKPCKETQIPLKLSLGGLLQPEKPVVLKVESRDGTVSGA
Text: FIG. 24. 7-BQ oxidation by liver (A) and intestinal (B) microsomes from C57BL/6J, hCYP3A4/3A7_Cyp3a KO, hCYP3A4_Cyp3a KO and Cyp3a KO mice Data generated according to CXR approved Laboratory Method Sheet Fluor-0005. Apart from bars for untreated transgenic/knock-out mice, which represent a single measurement, data are mean±SD (n=3 for C57BL/6J microsomes; n=2 for microsomes from PCN treated transgenic strains and human liver microsomes (HLM)). Activities of samples from treated hCYP3A4/3A7_Cyp3a KO and hCYP3A4_Cyp3a KO mice were compared to that from Cyp3a KO line with an unpaired t test (two tailed P values).

O=C(OCc1ccccc1)c1ccccc1-c1c2ccc(=O)cc-2oc2cc(OCc3ccccc3)ccc12 [DBF]
DBF oxidation reaction rate (CYP3A4 [1]; hCYP3A4/3A7_Cyp3a KO microsomes compared to hCYP3A4_Cyp3a KO): higher
DBF oxidation activity (CYP3A4 [1]; liver and intestinal samples from untreated humanised mice compared to Cyp3a KO): little increase
DBF oxidation activity, difference humanised vs Cyp3a KO (CYP3A4 [1]; samples from the PCN treated groups): significantly more pronounced

CC(=O)[C@H]1[C@H](C#N)C[C@H]2[C@@H]3CC=C4C[C@@H](O)CC[C@]4(C)[C@H]3CC[C@@]21C [PCN, 5-Pregnen-3β-ol-20-one-16α-carbonitrile]
CYP3A7 mRNA (Q-PCR) (CYP3A7 mRNA): possible induction of CYP3A7
Liver per body weight, percentage of C57BL/6J from the same treatment group ([2]; C57BL/6J mice): 100 ± 2.1 %
Liver per body weight, percentage of control group of the same strain ([2]; C57BL/6J mice): 131 ± 2.7 %
Body weight ([2]; C57BL/6J mice, n=3): 19.30 ± 0.82 g
Liver per body weight ([2]; C57BL/6J mice, n=3): 5.70 ± 0.12 %
Liver weight ([2]; C57BL/6J mice, n=3): 1.10 ± 0.06 g
liver/body weight ratio ([2]; C57BL/6J mice, PCN administration vs control): significantly (P<0.001) increased
Liver per body weight, percentage of C57BL/6J from the same treatment group ([2]; Cyp3a KO mice): 89 ± 4.4 %
Liver per body weight, percentage of control group of the same strain ([2]; Cyp3a KO mice): 121 ± 6.0 %
Body weight ([2]; Cyp3a KO mice, n=2): 24.05 ± 1.77 g
Liver per body weight ([2]; Cyp3a KO mice, n=2): 5.06 ± 0.25 %
Liver weight ([2]; Cyp3a KO mice, n=2): 1.22 ± 0.15 g
liver/body weight ratio ([2]; all treated transgenic mice vs treated wild type, significant (P<0.05) only in Cyp3a KO group): decreased liver/body weight ratio compared to the treated wild type
Liver per body weight, percentage of C57BL/6J from the same treatment group ([2]; hCYP3A4/3A7_Cyp3a KO mice): 97 ± 21.1 %
Liver per body weight, percentage of control group of the same strain ([2]; hCYP3A4/3A7_Cyp3a KO mice): 120 ± 26.1 %
Body weight ([2]; hCYP3A4/3A7_Cyp3a KO mice, n=2): 19.15 ± 0.64 g
Liver per body weight ([2]; hCYP3A4/3A7_Cyp3a KO mice, n=2): 5.53 ± 1.20%
Liver weight ([2]; hCYP3A4/3A7_Cyp3a KO mice, n=2): 1.06 ± 0.27 g
Liver per body weight, percentage of C57BL/6J from the same treatment group ([2]; hCYP3A4_Cyp3a KO mice): 93 ± 4.6 %
Liver per body weight, percentage of control group of the same strain ([2]; hCYP3A4_Cyp3a KO mice): 113 ± 5.6 %
Body weight ([2]; hCYP3A4_Cyp3a KO mice, n=2): 19.00 ± 0.71 g
Liver per body weight ([2]; hCYP3A4_Cyp3a KO mice, n=2): 5.27 ± 0.26%
Liver weight ([2]; hCYP3A4_Cyp3a KO mice, n=2): 1.00 ± 0.09 g
plasma level of cholesterol, low and high density lipoproteins, alanine transferase and alkaline phosphatase [3]: statistically significant increases
hepatic and intestinal CYP3A4 expression (CYP3A4 [4]; both humanised lines, treatment with PCN): strong induction
intestinal CYP3A4 protein upregulation (Western blot) (CYP3A4 [4]; intestinal microsomes, humanised mice, compared with liver upregulation): less pronounced
liver CYP3A4 protein (Western blot) (CYP3A4 [4]; liver microsomes, humanised mice, PCN 100 mg/kg/2 days/IP): strong upregulation
7-BQ oxidation activity in response to PCN (CYP3A4 [5]): no increase in activity

c1ccc(COc2ccc3cccnc3c2)cc1 [7-BQ, 7-benzyloxyquinoline]
7-BQ oxidation (CYP3A4 [5]): marked decrease
7-BQ oxidation, recovery of activity (CYP3A4 [5]): small and not statistically significant
7-BQ oxidation reaction rate (CYP3A4 [6]): low reaction rate
